Key:
Assay in all cases: association of peptide with HLA molecules and stability of the complex
Conditions in all cases: stable complex: peptide remains bound for at least about 3 hours at 37° C.
[1] = system: HLA molecules of the A29 type; format: binding, human
Description: (§1) The different epitopes of the polyepitopic region of the predetermined protein, and delimiting the epitopic protein fragments, are preferably selected from the peptides; • binding to a predetermined molecule of MCH, particularly to a molecule of the predetermined HLA type, and this from concentrations of about 10^−6 M to about 10^−10 M in peptide for concentrations of about 10^−7 M of HLA molecules, particularly under the conditions described hereafter, • and forming a stable complex with said MCH molecule, namely particularly a complex in which said peptide remains bound to said molecule for at least about 3 hours at 37° C.
(§2) By way of illustration, the above-mentioned epitopes of the invention are selected from among the peptides adapted: • on the one hand of associating with the molecules of MCH, particularly by using the following method: • incubation (particularly for about 2 hours at 25° C., then about 15 hours at 4° C.) of the peptide in the presence of MCH molecules, from the lysis of human or animal cells, or purified particularly by affinity chromatography from human or animal cell lines, • trapping complexes formed during the preceding step on a solid support covered with a first antibody, particularly monoclonal, recognizing specifically the CMH molecules in their configuration dependent on their connection to said peptide, • addition to the preceding solid support of a second marked antibody, particularly by coupling to a radioactive, enzymatic or fluorescent marker, said marked antibody recognizing specifically either the long chains of MCH in their configuration dependent on their connection to the peptide, or the short chain of MCH or the β2-microglobulin binding specifically to the different long chains of the MCH in their above-mentioned configuration, • detection, after rinsing of the solid support, of the possible presence of the second marked antibody remaining fixed on the solid support, signifying an association effect between the molecules of MCH and the peptide studied, • and, on the other hand, forming a complex with said MCH molecules, whose stability can be evaluated by the use of a method of following according to time the connection established between the peptide and the MCH molecules, this method being preferably carried out according to a protocol identical to the preceding method, but in which the incubation step of the peptide in the presence of MCH molecules on the solid support covered with said first antibody, is preceded by a preliminary step of eliminating the free peptide adapted that may be present in the reaction medium, particularly by washing the solid support, said incubation step being carried out (preferably at a temperature of 37° C.) for variable times of 1 hours, 3 hours, 5 hours, 24 hours and 48 hours.
(§3) As mentioned above, the epitopes of the invention should be recognized by the T cells in association with the MCH molecules and associate with these latter, particularly in the framework of the practice of the recognition test described above. This association can be weak (detectable at concentrations of peptide analogs of the order of 10^−4 to 10^−5 M), intermediate (detectable at concentrations of peptide analogs of the order of 10^−6 to 10^−7 M), or strong (detectable at concentrations of peptide analogs of the order of 10^−8 to 10^−9 M). The peptides associated with the MCH molecules in the scope of the present invention are preferably adapted to bond during at least about 3 hours, to said MCH molecules.

[2] = system: HLA molecules of the B44 type; format: binding, human
Description: as §1, §2, §3

[3] = target: T1, HLA molecules of the B7 type (Homo sapiens, UniProt P01889); format: binding
T1 construct: endogenous in cells
Description: as §1, §2, §3

[4] = system: HLA molecules of the B18 type; format: binding, human
Description: as §1, §2, §3

[5] = system: HLA molecules of the B35 type; format: binding, human
Description: as §1, §2, §3

[6] = system: HLA molecules of the B51 type; format: binding, human
Description: as §1, §2, §3

[7] = system: HLA molecules of the B8 type; format: binding, human
Description: as §1, §2, §3

[8] = system: HLA molecules of the A2 type; format: binding, human
Description: as §1, §2, §3

[9] = system: HLA molecules of the A11 type; format: binding, human
Description: as §1, §2, §3

[10] = target: T2, HLA molecules of the A3 type (Homo sapiens, UniProt P04439); format: binding
T2 construct: endogenous in cells
Description: as §1, §2, §3

[11] = system: HLA molecules of the A1 type; format: binding, human
[12] = system: HLA molecules of the B62 type; format: binding, human
Description: as §1, §2, §3

[13] = system: HLA molecules of the B27 type; format: binding, human
Description: as §1, §2, §3

T2 sequence (P61769 21-119): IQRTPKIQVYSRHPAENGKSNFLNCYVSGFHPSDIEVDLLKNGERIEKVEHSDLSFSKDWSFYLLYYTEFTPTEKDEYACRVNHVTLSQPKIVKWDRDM
T2 sequence (P04439 25-365): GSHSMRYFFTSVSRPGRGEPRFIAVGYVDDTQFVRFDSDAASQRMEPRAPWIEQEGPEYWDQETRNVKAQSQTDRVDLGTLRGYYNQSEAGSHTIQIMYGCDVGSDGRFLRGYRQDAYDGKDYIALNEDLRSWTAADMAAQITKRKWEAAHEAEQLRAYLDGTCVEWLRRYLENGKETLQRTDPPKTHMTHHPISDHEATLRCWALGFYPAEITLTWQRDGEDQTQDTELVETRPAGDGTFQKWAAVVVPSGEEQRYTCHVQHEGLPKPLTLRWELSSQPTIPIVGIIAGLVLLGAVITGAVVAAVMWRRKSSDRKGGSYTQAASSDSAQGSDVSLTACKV
T1 sequence (P01889 25-362): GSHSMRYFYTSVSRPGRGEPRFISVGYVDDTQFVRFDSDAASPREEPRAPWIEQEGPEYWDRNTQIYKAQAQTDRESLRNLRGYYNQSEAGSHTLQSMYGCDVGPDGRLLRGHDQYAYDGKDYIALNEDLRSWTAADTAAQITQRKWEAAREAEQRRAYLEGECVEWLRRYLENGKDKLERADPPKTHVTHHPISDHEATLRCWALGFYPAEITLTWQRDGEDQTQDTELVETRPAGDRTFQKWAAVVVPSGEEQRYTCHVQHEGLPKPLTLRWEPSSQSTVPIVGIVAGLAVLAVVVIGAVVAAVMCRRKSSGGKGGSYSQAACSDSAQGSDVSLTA
T1 sequence (P61769 21-119, further chain): as the sequence (P61769 21-119) above

## AEPDRAHY (Human Papillomavirus)
[1]
  binding stably to HLA molecules of the A29 type: binding stably
[2]
  binding stably to HLA molecules of the B44 type: binding stably

## APPQHLIRV
[3]
  binding stably to HLA molecules of the B7 type: binding stably

## CPEEKQRHL (Human Papillomavirus)
[4]
  binding stably to HLA molecules of the B18 type: binding stably
[5]
  binding stably to HLA molecules of the B35 type: binding stably
[6]
  binding stably to HLA molecules of the B51 type: binding stably
[7]
  binding stably to HLA molecules of the B8 type: binding stably

## CVYCKQQL (Human Papillomavirus)
[7]
  binding stably to HLA molecules of the B8 type: binding stably

## DKKQRFHNI (Human Papillomavirus)
[7]
  binding stably to HLA molecules of the B8 type: binding stably

## EPDRAHYNIV (Human Papillomavirus)
[5]
  binding stably to HLA molecules of the B35 type: binding stably
[3]
  binding stably to HLA molecules of the B7 type: binding stably

## FAFRDLCIV (Human Papillomavirus)
[8]
  binding stably to HLA molecules of the A2 type: binding stably
[5]
  binding stably to HLA molecules of the B35 type: binding stably
[6]
  binding stably to HLA molecules of the B51 type: binding stably
[3]
  binding stably to HLA molecules of the B7 type: binding stably

## FRDLCIVYR (Human Papillomavirus)
[9]
  binding stably to HLA molecules of the A11 type: binding stably
[10]
  binding stably to HLA molecules of the A3 type: binding stably

## IILECVYCK (Human Papillomavirus)
[9]
  binding stably to HLA molecules of the A11 type: binding stably

## ISEYRHYCY (Human Papillomavirus)
[11]
  binding stably to HLA molecules of the A1 type: binding stably
[4]
  binding stably to HLA molecules of the B18 type: binding stably

## IVCPICSQK
[9]
  binding stably to HLA molecules of the A11 type: binding stably
[10]
  binding stably to HLA molecules of the A3 type: binding stably

## IVYRDGNPY
[9]
  binding stably to HLA molecules of the A11 type: binding stably
[10]
  binding stably to HLA molecules of the A3 type: binding stably

## KPLCDLLI (Human Papillomavirus)
[5]
  binding stably to HLA molecules of the B35 type: binding stably
[6]
  binding stably to HLA molecules of the B51 type: binding stably
[3]
  binding stably to HLA molecules of the B7 type: binding stably

## LECVYCKQQL (Human Papillomavirus)
[1]
  binding stably to HLA molecules of the A29 type: binding stably
[2]
  binding stably to HLA molecules of the B44 type: binding stably

## LEDLLMGTL (Human Papillomavirus)
[1]
  binding stably to HLA molecules of the A29 type: binding stably
[2]
  binding stably to HLA molecules of the B44 type: binding stably

## LEQQYNKPL
[1]
  binding stably to HLA molecules of the A29 type: binding stably
[2]
  binding stably to HLA molecules of the B44 type: binding stably

## LPQLCTEL (Human Papillomavirus)
[6]
  binding stably to HLA molecules of the B51 type: binding stably

## LQPETTDLY (Human Papillomavirus)
[12]
  binding stably to HLA molecules of the B62 type: binding stably

## NIVTFCCK (Human Papillomavirus)
[9]
  binding stably to HLA molecules of the A11 type: binding stably
[10]
  binding stably to HLA molecules of the A3 type: binding stably

## NLLGRNSF (listed as Homo sapiens)
[12]
  binding stably to HLA molecules of the B62 type: binding stably

## NTFRHSVVV
[7]
  binding stably to HLA molecules of the B8 type: binding stably

## QAEPDRAHY (Human Papillomavirus)
[11]
  binding stably to HLA molecules of the A1 type: binding stably
[4]
  binding stably to HLA molecules of the B18 type: binding stably

## QPETTDLYCY (Human Papillomavirus)
[11]
  binding stably to HLA molecules of the A1 type: binding stably
[4]
  binding stably to HLA molecules of the B18 type: binding stably

## RPILTIITL
[5]
  binding stably to HLA molecules of the B35 type: binding stably
[3]
  binding stably to HLA molecules of the B7 type: binding stably

## RPRKLPQL (Human Papillomavirus)
[5]
  binding stably to HLA molecules of the B35 type: binding stably
[3]
  binding stably to HLA molecules of the B7 type: binding stably

## RREVYDFAFR (Human Papillomavirus)
[13]
  binding stably to HLA molecules of the B27 type: binding stably

## RRPILTIITL (listed as Homo sapiens)
[13]
  binding stably to HLA molecules of the B27 type: binding stably

## RVRAMAIY (listed as Homo sapiens)
[12]
  binding stably to HLA molecules of the B62 type: binding stably

## RVRAMAIYK (listed as Homo sapiens)
[10]
  binding stably to HLA molecules of the A3 type: binding stably

## SEYRHYCY (Human Papillomavirus)
[1]
  binding stably to HLA molecules of the A29 type: binding stably
[2]
  binding stably to HLA molecules of the B44 type: binding stably

## TAKSVTCTY (listed as Homo sapiens)
[12]
  binding stably to HLA molecules of the B62 type: binding stably

## TELQTTIHDI (Human Papillomavirus)
[1]
  binding stably to HLA molecules of the A29 type: binding stably
[2]
  binding stably to HLA molecules of the B44 type: binding stably

## TLEQQYNK (Human Papillomavirus)
[9]
  binding stably to HLA molecules of the A11 type: binding stably
[10]
  binding stably to HLA molecules of the A3 type: binding stably

## TRVRAMAIYK (listed as Homo sapiens)
[13]
  binding stably to HLA molecules of the B27 type: binding stably

## VRVCACPGR (listed as Homo sapiens)
[13]
  binding stably to HLA molecules of the B27 type: binding stably

## YDFAFRDL (Human Papillomavirus)
[1]
  binding stably to HLA molecules of the A29 type: binding stably
[2]
  binding stably to HLA molecules of the B44 type: binding stably
